Laboratory results as given in patent publication US7872014B2, “Anaplastic lymphoma kinase modulators and methods of use” (Exelixis, Inc., priority 2003, dated 2011).

target: T1, ALK (baculovirus expressed human ALK kinase domain F1098-K1410) (Homo sapiens, UniProt Q9UM73); experiment: Luciferase-Coupled Chemiluminescent Kinase assay (LCCA), ALK biochemical activity; details: inhibition of ALK; mean values; 1 μM ATP, 4 μM poly-AEKY, 12 nM ALK, 2 hours ambient temperature
T1 construct: baculovirus expressed human ALK kinase domain F1098-K1410; made in house
T1 sequence (Q9UM73 1098-1410): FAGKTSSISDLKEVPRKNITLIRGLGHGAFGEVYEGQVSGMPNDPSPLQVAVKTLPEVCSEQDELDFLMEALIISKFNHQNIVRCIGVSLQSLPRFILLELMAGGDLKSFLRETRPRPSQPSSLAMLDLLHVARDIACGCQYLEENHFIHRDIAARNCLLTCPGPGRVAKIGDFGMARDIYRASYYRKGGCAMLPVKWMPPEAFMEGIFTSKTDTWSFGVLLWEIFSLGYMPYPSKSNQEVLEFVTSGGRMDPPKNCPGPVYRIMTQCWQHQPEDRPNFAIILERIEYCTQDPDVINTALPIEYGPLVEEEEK
Summary of the method: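 Luciferase-coupled readout of ATP remaining after reaction of 12 nM ALK kinase domain with 1 μM ATP and 4 μM poly-AEKY, Tris-HCl pH 7.5 buffer with MgCl2 and MnCl2. Incubated 2 h at ambient temperature; inhibition derived from ATP consumption across serial compound dilutions.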

IC50, ≤ 99 nM:
COc1c(OCCN2CCN(c3ccccn3)CC2)cc(F)c2c(-c3ccc(O)c(Cl)c3)nc3[nH]nc(C)c3c12 [Example 238, 2-chloro-4-(6-fluoro-1-methyl-9-(methyloxy)-8-{[2-(4-pyridin-2-ylpiperazin-1-yl)ethyl]oxy}-3H-pyrazolo[3,4-c]isoquinolin-5-yl)phenol]
COc1c(OCCN2CC(C)OC(C)C2)cc(F)c2c(-c3ccc(O)c(Cl)c3)nc3[nH]nc(C)c3c12 (centres unmarked) [Example 239, 2-chloro-4-[8-{[2-(2,6-dimethylmorpholin-4-yl)ethyl]oxy}-6-fluoro-1-methyl-9-(methyloxy)-3H-pyrazolo[3,4-c]isoquinolin-5-yl]phenol]
COc1c(OCCN2CCSCC2)cc(F)c2c(-c3ccc(O)c(Cl)c3)nc3[nH]nc(C)c3c12 [Example 240, 2-chloro-4-{6-fluoro-1-methyl-9-(methyloxy)-8-[(2-thiomorpholin-4-ylethyl)oxy]-3H-pyrazolo[3,4-c]isoquinolin-5-yl}phenol]
COc1c(OCCN2C(C)CCCC2C)cc(F)c2c(-c3ccc(O)c(Cl)c3)nc3[nH]nc(C)c3c12 (centres unmarked) [Example 241, 2-chloro-4-[8-{[2-(2,6-dimethylpiperidin-1-yl)ethyl]oxy}-6-fluoro-1-methyl-9-(methyloxy)-3H-pyrazolo[3,4-c]isoquinolin-5-yl]phenol]
COc1c(OCCN2CCCC3CCCCC32)cc(F)c2c(-c3ccc(O)c(Cl)c3)nc3[nH]nc(C)c3c12 (centres unmarked) [Example 242, 2-chloro-4-(6-fluoro-1-methyl-9-(methyloxy)-8-{[2-(octahydroquinolin-1(2H)-yl)ethyl]oxy}-3H-pyrazolo[3,4-c]isoquinolin-5-yl)phenol]
COc1c(OCCN(C(C)C)C(C)C)cc(F)c2c(-c3ccc(O)c(Cl)c3)nc3[nH]nc(C)c3c12 [Example 243, 4-[8-({2-[bis(1-methylethyl)amino]ethyl}oxy)-6-fluoro-1-methyl-9-(methyloxy)-3H-pyrazolo[3,4-c]isoquinolin-5-yl]-2-chlorophenol]
COCCN(CCOC)CCOc1cc(F)c2c(-c3ccc(O)c(Cl)c3)nc3[nH]nc(C)c3c2c1OC [Example 244, 4-[8-[(2-{bis[2-(methyloxy)ethyl]amino}ethyl)oxy]-6-fluoro-1-methyl-9-(methyloxy)-3H-pyrazolo[3,4-c]isoquinolin-5-yl]-2-chlorophenol]
COc1c(OCCN2CCCCC2)cc(F)c2c(-c3ccc(O)c(Cl)c3)nc3[nH]nc(C)c3c12 [Example 245, 2-chloro-4-{6-fluoro-1-methyl-9-(methyloxy)-8-[(2-piperidin-1-ylethyl)oxy]-3H-pyrazolo[3,4-c]isoquinolin-5-yl}phenol]
